For orientation: EC50 means the concentration needed to bring the measured effect to its halfway point. A high value points to lower potency in that assay. The term IC50 denotes the concentration at which inhibition is half-maximal. In general, clearance refers to a measure of how efficiently the substance is removed, as volume per time. Read a high clearance as efficient removal. For orientation: half-life means how long it takes for the measured level to halve. A high value points to slow decline. Broadly, the bioavailability is dose-corrected exposure relative to a reference, in per cent. In general, Inhibition refers to the share of the control response that was lost under treatment. The low end stands for little suppression, the high end for strong suppression.

Here are results for 5 compounds from ChEMBL document CHEMBL1139605, “Novel ketal ligands for the glucocorticoid receptor: in vitro and in vivo activity” (Bioorg Med Chem Lett, 2005).

The structures appear in SMILES notation.

The species named for data set [1] is Mus musculus. The data set is described as follows: Effective concentration required for inhibition of interleukin-6 in mouse thioglycolate-elicited peritoneal exudate cell line using 69% radiolabeled Dexamethasone. It is filed as functional.
In data set [2] the test system is A549. As to the kind of experiment: Effective concentration for inhibition of interleukin-6 in human A549 lung carcinoma cell line using 62% radiolabeled Dexamethasone. It is filed as functional, cell-based.
In data set [3] the target is T1, Glucocorticoid receptor (Homo sapiens, UniProt P04150).
T1 sequence (P04150 whole entry): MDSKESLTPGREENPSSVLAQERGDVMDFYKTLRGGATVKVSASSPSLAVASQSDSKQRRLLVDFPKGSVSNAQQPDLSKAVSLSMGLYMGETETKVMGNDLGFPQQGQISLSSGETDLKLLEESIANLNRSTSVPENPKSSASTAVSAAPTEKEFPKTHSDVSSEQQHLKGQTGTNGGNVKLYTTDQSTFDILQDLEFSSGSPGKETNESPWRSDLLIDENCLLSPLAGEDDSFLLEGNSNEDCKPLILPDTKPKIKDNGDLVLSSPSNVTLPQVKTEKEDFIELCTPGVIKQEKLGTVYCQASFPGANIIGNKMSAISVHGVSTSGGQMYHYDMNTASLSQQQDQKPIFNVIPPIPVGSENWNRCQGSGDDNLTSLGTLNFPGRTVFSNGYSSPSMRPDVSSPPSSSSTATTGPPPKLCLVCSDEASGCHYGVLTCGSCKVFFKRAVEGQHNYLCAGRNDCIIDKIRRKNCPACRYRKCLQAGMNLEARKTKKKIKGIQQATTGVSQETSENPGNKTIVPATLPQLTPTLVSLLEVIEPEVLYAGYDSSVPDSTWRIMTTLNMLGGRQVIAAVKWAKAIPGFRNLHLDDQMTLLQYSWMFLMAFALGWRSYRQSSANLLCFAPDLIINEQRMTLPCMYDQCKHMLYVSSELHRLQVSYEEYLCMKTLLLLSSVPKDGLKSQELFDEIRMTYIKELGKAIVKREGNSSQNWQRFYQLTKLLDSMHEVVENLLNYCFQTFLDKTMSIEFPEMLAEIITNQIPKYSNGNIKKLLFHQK
As to the kind of experiment: Inhibition of human glucocorticoid receptor alpha isoform.

The test system of data set [4] is A549. As to the kind of experiment: Effective concentration for inhibition of interleukin-6 in human A549 lung carcinoma cell line using 35% radiolabeled Dexamethasone. It counts as functional, cell-based.
For data set [5], the system named is A549. The data set is described as follows: Effective concentration for inhibition of interleukin-6 in human A549 lung carcinoma cell line using 44% radiolabeled Dexamethasone. It counts as functional, cell-based.
The species entered for data set [6] is Mus musculus. As to the kind of experiment: Effective concentration required for inhibition of interleukin-6 in mouse thioglycolate-elicited peritoneal exudate cell line using 56% radiolabeled Dexamethasone. It is filed as functional.
In data set [7] the test system is A549. The data set is described as follows: Effective concentration for inhibition of interleukin-6 in human A549 lung carcinoma cell line using 58% radiolabeled Dexamethasone. It counts as functional, cell-based.
In data set [8] the target is T2, Estrogen receptor (Homo sapiens, UniProt P03372).
T2 sequence (P03372 whole entry): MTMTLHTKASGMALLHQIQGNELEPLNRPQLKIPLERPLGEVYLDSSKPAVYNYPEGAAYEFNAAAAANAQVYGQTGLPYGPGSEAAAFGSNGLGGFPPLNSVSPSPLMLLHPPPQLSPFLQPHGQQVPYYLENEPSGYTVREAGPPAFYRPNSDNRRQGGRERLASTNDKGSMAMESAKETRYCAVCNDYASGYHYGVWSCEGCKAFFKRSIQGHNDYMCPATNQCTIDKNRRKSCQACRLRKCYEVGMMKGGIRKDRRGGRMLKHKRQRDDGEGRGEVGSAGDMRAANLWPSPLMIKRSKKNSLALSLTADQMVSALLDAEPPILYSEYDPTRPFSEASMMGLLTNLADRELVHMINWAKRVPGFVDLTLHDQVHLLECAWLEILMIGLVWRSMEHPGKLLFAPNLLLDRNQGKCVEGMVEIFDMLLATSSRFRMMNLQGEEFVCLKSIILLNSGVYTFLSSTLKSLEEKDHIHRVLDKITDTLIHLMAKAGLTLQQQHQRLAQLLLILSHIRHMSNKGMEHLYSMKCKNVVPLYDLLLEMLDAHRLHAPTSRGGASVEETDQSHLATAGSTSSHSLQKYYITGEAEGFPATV
The data set is described as follows: Binding affinity for human estrogen receptor alpha.

Data set [9] has as its target T1, Glucocorticoid receptor. As to the kind of experiment: Binding affinity for human glucocorticoid receptor.
Data set [10] in a line: Clearance data in mouse at 2 mg/kg i.v. administration. It is filed as ADME, organism-based. The arrangement: dose 2 mg/kg, route intravenous. The following applies: in vivo, iv.
The target in data set [11] is Estrogen receptor beta (Homo sapiens, UniProt Q92731). As to the kind of experiment: Binding affinity for human estrogen receptor beta.
The nature of data set [12]: Half life time in mouse at 2 mg/kg i.v. administration. It is filed as ADME, organism-based. The arrangement: dose 2 mg/kg, route intravenous. As to conditions: in vivo, iv.
Data set [13] can be described thus: Volume of distribution in mouse at 2 mg/kg i.v. administration. It is filed as ADME, organism-based. The arrangement: dose 2 mg/kg, route intravenous. As to conditions: in vivo, iv, read-out: Volume of distribution.
The species entered for data set [14] is Mus musculus. As to the kind of experiment: Effective concentration required for interleukin-6 transrepression in peritoneal exudate cells of C57B1/6 mouse using 56% Dexamethasone. It counts as functional, cell-based.
Data set [15] is described as follows: Bioavailability in mouse (dose 10 mg/kg p.o.). It counts as ADME, organism-based. As to conditions: in vivo, po.
In data set [16] the test system is Mus musculus. As to the kind of experiment: Inhibition of LPS induced TNF-alpha secretion in mouse at an oral dose of 30 mg/kg relative to that produced by Dexamethasone at a dose of 0.3 mg/kg. It counts as functional.
The target of data set [17] is T3, Mineralocorticoid receptor (Rattus norvegicus, UniProt P22199).
T3 sequence (P22199 whole entry): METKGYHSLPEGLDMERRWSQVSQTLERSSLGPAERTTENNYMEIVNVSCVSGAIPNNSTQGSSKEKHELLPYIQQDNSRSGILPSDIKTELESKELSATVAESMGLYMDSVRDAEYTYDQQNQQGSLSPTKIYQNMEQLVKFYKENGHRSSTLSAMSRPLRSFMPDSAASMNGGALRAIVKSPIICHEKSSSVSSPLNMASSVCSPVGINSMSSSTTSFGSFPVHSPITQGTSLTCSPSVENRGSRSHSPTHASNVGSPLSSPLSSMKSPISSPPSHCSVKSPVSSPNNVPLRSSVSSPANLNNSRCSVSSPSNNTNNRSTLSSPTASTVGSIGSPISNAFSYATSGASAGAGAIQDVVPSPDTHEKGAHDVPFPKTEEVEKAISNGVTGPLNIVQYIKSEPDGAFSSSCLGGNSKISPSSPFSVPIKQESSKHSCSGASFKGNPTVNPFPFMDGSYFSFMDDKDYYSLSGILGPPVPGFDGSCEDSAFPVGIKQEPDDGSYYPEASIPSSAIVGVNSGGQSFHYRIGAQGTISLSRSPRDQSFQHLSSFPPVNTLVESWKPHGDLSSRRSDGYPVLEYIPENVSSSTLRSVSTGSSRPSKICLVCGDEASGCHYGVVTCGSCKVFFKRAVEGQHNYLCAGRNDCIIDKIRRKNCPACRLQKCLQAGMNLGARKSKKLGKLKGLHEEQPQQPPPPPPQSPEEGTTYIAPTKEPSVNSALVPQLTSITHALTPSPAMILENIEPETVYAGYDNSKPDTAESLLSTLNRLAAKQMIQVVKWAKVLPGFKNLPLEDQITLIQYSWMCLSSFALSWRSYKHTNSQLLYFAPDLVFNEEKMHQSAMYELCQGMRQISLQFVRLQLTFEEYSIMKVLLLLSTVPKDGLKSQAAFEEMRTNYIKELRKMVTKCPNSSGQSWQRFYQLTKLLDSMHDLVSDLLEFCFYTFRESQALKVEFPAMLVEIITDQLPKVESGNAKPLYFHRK
As to the kind of experiment: Binding affinity for rat mineralocorticoid receptor.

In data set [18] the target is T4, Progesterone receptor (Homo sapiens, UniProt P06401).
T4 sequence (P06401 whole entry): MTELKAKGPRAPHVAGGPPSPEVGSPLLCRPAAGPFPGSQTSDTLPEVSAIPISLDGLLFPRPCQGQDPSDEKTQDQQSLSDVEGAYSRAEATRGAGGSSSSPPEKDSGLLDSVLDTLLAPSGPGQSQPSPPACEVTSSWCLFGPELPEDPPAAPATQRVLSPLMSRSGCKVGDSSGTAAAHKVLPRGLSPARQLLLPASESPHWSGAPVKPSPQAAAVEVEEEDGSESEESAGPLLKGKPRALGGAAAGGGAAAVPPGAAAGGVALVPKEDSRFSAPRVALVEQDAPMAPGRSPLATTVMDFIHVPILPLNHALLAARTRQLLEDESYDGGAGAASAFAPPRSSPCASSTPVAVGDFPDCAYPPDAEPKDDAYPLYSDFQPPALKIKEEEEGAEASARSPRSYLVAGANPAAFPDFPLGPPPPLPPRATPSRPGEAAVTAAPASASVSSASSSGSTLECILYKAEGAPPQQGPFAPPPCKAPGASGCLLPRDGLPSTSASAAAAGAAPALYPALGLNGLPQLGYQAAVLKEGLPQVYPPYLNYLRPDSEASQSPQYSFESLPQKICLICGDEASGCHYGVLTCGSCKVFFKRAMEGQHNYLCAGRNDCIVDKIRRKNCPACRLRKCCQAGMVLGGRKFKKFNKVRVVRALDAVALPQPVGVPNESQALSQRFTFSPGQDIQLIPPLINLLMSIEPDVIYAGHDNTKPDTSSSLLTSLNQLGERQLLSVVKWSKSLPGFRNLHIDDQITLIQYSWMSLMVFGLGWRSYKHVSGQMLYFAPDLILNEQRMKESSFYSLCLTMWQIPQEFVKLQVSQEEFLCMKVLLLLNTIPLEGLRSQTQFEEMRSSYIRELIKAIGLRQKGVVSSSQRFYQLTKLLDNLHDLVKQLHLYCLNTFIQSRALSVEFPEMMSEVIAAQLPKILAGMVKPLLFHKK
The data set is described as follows: Binding affinity for human progesterone receptor.

Data set [19] is filed under the species Mus musculus. The data set is described as follows: Effective concentration required for inhibition of interleukin-6 in mouse thioglycolate-elicited peritoneal exudate cell line using 85% radiolabeled Dexamethasone. It counts as functional.
Data set [20] deals with A549. As to the kind of experiment: Effective concentration for inhibition of interleukin-6 in human A549 lung carcinoma cell line using 67% radiolabeled Dexamethasone. It counts as functional, cell-based.
The nature of data set [21]: Effective concentration required for induction of glutamine synthetase in human skeletal muscle cells using 0% radiolabeled Dexamethasone. It counts as functional.

Chain of Estrogen receptor beta (Q92731 whole entry): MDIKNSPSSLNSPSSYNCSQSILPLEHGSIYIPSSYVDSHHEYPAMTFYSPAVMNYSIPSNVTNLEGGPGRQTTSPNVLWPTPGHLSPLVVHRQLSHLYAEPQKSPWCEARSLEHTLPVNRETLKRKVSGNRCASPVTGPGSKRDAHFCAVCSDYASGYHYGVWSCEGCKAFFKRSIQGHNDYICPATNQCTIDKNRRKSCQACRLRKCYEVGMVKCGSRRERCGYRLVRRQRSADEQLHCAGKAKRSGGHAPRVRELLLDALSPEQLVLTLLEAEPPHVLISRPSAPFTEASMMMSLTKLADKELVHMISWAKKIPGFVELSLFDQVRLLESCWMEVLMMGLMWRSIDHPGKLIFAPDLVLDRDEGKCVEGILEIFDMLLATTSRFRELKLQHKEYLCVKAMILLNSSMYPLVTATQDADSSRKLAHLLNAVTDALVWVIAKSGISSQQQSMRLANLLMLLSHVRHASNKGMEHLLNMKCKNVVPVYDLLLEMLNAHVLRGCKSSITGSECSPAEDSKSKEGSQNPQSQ

Take `COC[C@H]1OC2(CCC3=Cc4c(cnn4-c4ccc(F)cc4)C[C@@]32C)O[C@@H]1COC`: the values for the concentration for a half-maximal effect (EC50) in data set [1] and in data set [2] were 0.01 µM and 0.0083 µM, respectively. In data set [3], this compound displayed an IC50 of 0.026 µM.

Compound `C[C@H]1CCO[C@]2(CCC3=Cc4c(cnn4-c4ccc(F)cc4)C[C@@]32C)O1` had a half-inhibitory concentration (IC50) in data set [3] of 0.021 µM. In data set [4], this compound had an EC50 of 0.00053 µM.

In [5], `C[C@@H]1CC(C)(C)O[C@]2(CCC3=Cc4c(cnn4-c4ccc(F)cc4)C[C@@]32C)O1` gave an EC50 of 0.012 µM. This compound registered a half-maximal inhibitory concentration (IC50) in data set [3] of 0.0022 µM.

Regarding `C=C[C@H]1OC2(CCC3=Cc4c(cnn4-c4ccc(F)cc4)C[C@@]32C)O[C@@H]1C=C`, the concentration for a half-maximal effect (EC50) in data set [6] was 0.061 µM; in data set [7], 0.0026 µM; in data set [14], 0.061 µM. In addition, the concentration for half-maximal inhibition (IC50) in data set [8] was greater than 10 µM; in data set [9], 0.008 µM; in data set [11], greater than 10 µM; in data set [3], 0.008 µM; in data set [17], greater than 10 µM; in data set [18], greater than 1 µM. The compound further returned a clearance in [10] of 114 mL/min/kg. In addition, the half-life in data set [12] is 2.3 h. The Vd in data set [13] stood at 15.3 L/kg. Further, the bioavailability in data set [15] amounted to 14.3%. Moreover, the Inhibition in [16] is listed as 96.8%.

With `C[C@]12Cc3cnn(-c4ccc(F)cc4)c3C=C1CCC21O[C@H](c2ccccc2)[C@@H](c2ccccc2)O1`, the EC50 in data set [19] is 0.06 µM; in data set [20], 0.01 µM; in data set [21], 0.01 µM. For the same compound, in data set [3], the IC50 was determined as 0.01 µM.
